pIC50: −log10 of the molar value.

In this assay the target is T1, purified recombinant human SYK360-635 (Homo sapiens, UniProt P43405).
T1 construct: truncated construct of Spleen Tyrosine Kinase aa 360-635; GST; made in house
As to the kind of experiment: SYK kinase assay: 33P γATP incorporation into biotinylated peptide substrate, IC50 determination. Format: biochemical. The following applies: SYK 0.5 nM, ATP 20 μM, DYE peptide 5 μM, 30° C. 15 min; read-out: IC50 h-syk-gst-sf9-c (inactive-dephosphorylated). The procedure: Determination of IC50 of Spleen Tyrosine Kinase (SYK) Inhibition:
SYK kinase assay is a standard kinase assay adapted to a 96 well plate format. This assay is performed in 96-well format for IC50 determination with […] which represented 10 half log dilutions and a 40 μL reaction volume. The assay measures the incorporation of radiolabeled ^33P γATP into an N-terminally biotinylated peptide substrate, derived from naturally occurring phosphoacceptor consensus sequence (Biotin-11aa DY*E). Phosphorylated products were detected upon termination of reactions with EDTA and the addition of Streptavidin coated beads.
Assay plates: 96-well MultiScreen 0.65 um filter plates (Millipore Cat. No.: MADVNOB10)
BSA: Bovine Serum Albumin Fraction V, fatty acid free (Roche Diagnostics GmbH, Cat. No. 9100221) diluted to a final concentration of 0.1%
Assay Dilution Buffer (ADB): 50 mM HEPES, 0.1 mM EGTA, 0.1 mM Na Vanadate, 0.1 mM β-glycerophosphate, 10 mM MgCl2, 1 mM DTT, 0.1% BSA, pH 7.5
Bead wash buffer: 10 g/L PBS (Phosphate buffered saline) with 2M NaCl+1% phosphoric acid.
DMSO and the mixture was incubated for 10 min at RT.
The kinase reaction was initiated by the addition of 10 μL 4× substrate cocktail containing the DYE peptide substrate [0 or 5 μM], ATP [20 μM] and ^33PγATP [2 μCi/r×n]. After incubation at 30° C. for 15 min, the reaction was terminated by the transfer of 25 μL of the reaction sample to a 96 well 0.65 μm Millipore MADVNOB membrane/plate containing 200 μL 5 mM EDTA and 20% Streptavidine coated beads in PBS.
After the last wash membrane/plates were transferred to an adaptor plate, heat dried for 15 min at 60° C., and 50 μL scintillation cocktail was added to each well and 4 h later the amount of radioactivity was counted in a top counter.
`COc1ccc(Nc2nc(-c3ccc(C(=O)NCCc4ccncc4)cc3)nc3scnc23)cc1OC` [Compound I-20, 4-[7-(3,4-Dimethoxy-phenylamino)-thiazolo[5,4-d]pyrimidin-5-yl]-N-(2-pyridin-4-yl-ethyl)-benzamide]: the pIC50 is 6.25.

As for `COc1cc(Nc2nc(-c3cccc(C(N)=O)c3)nc3scnc23)cc(OC)c1OC` [Compound I-58, 3-[7-(3,4,5-Trimethoxy-phenylamino)-thiazolo[5,4-d]pyrimidin-5-yl]-benzamide], the pIC50 was 5.65.

Turning to `CS(=O)(=O)c1cccc(Nc2nc(-c3cccc(C(=O)O)c3)nc3scnc23)c1` [Compound I-27, 3-[7-(3-Methanesulfonyl-phenylamino)-thiazolo[5,4-d]pyrimidin-5-yl]-benzoic acid], the negative logarithm of the IC50 (pIC50) was 5.34.

With `C[C@H]1CCCN1c1cccc(Nc2nc(-c3ccc(C(N)=O)cc3)nc3scnc23)c1` [Compound I-62, 4-{7-[3-((S)-2-Methyl-pyrrolidin-1-yl)-phenylamino]-thiazolo[5,4-d]pyrimidin-5-yl}-benzamide], the pIC50 was 6.47.

As to `COCC1CCCN1c1cccc(Nc2nc(-c3cccc(C(=O)O)c3)nc3scnc23)c1` (stereo not shown) [Compound I-28, 3-{7-[3-(2-Methoxymethyl-pyrrolidin-1-yl)-phenylamino]-thiazolo[5,4-d]pyrimidin-5-yl}-benzoic acid], the pIC50 is 5.50.

With `COc1ccc(Nc2nc(N3CCCC(C(=O)Nc4ccc5[nH]ncc5c4)C3)nc3scnc23)cc1OC` (stereo not shown) [Compound I-41, 1-(7-(3,4-Dimethoxyphenylamino)thiazolo[5,4-d]pyrimidin-5-yl)-N-(1H-indazol-5-yl)piperidine-3-carboxamide], the pIC50 is 5.77.

Turning to `COc1ccc(Nc2nc(-c3ccc(C(N)=O)cc3)nc3scnc23)cc1OC` [Compound I-64, 4-[7-(3,4-Dimethoxy-phenylamino)-thiazolo[5,4-d]pyrimidin-5-yl]-benzamide], the pIC50 is 6.95.

In the case of `COC(=O)c1ccc(C(=O)NC2CCN(c3nc(Nc4ccc(OC)c(OC)c4)c4ncsc4n3)C2)cn1` (stereo not shown) [Compound I-38, Methyl 5-(1-(7-(3,4-dimethoxyphenylamino)thiazolo[5,4-d]pyrimidin-5-yl)pyrrolidin-3-ylcarbamoyl)picolinate], the pIC50 was 5.71.

For the compound `COc1ccc(Nc2nc(-c3cccc(C(=O)Nc4ccc5cn[nH]c5c4)c3)nc3scnc23)cc1OC` [Compound I-19, 3-[7-(3,4-Dimethoxy-phenylamino)-thiazolo[5,4-d]pyrimidin-5-yl]-N-(1H-indazol-6-yl)-benzamide], the pIC50 was 7.25.

As for `COc1ccc(Nc2nc(N3CCC(NC(=O)c4ccc(C(=O)O)c(O)c4)C3)nc3scnc23)cc1OC` (stereo not shown) [Compound I-9, 4-(1-(7-(3,4-Dimethoxyphenylamino)thiazolo[5,4-d]pyrimidin-5-yl)pyrrolidin-3-ylcarbamoyl)-2-hydroxybenzoic acid], the pIC50 is 7.40.

For `C[C@H]1CCCN1c1cccc(Nc2nc(N3CCCC(O)C3)nc3scnc23)c1` (stereo partly drawn) [Compound I-59, 1-(7-(3-((S)-2-Methylpyrrolidin-1-yl)phenylamino)thiazolo[5,4-d]pyrimidin-5-yl)piperidin-3-ol], the pIC50 was 6.12.

As for `COc1ccc(Nc2nc(-c3cccc(C(=O)Nc4ccc(C5SC(=O)NC5=O)cc4)c3)nc3scnc23)cc1OC` (stereo not shown) [Compound I-63, 3-[7-(3,4-Dimethoxy-phenylamino)-thiazolo[5,4-d]pyrimidin-5-yl]-N-[4-(2,4-dioxo-thiazolidin-5-yl)-phenyl]-benzamide], the pIC50 was 7.28.

For `COc1ccc(Nc2nc(N3CCCC(C(=O)Nc4ccc5c(c4)CC(=O)N5)C3)nc3scnc23)cc1OC` (stereo not shown) [Compound I-40, 1-(7-(3,4-Dimethoxyphenylamino)thiazolo[5,4-d]pyrimidin-5-yl)-N-(2-oxoindolin-5-yl)piperidine-3-carboxamide], the pIC50 was 5.27.

Regarding `COc1ccc(Nc2nc(-c3ccc(C(=O)NCCc4ccn(C)c(=O)c4)cc3)nc3scnc23)cc1OC` [Compound I-24, 4-[7-(3,4-Dimethoxy-phenylamino)-thiazolo[5,4-d]pyrimidin-5-yl]-N-[2-(1-methyl-2-oxo-1,2-dihydro-pyridin-4-yl)-ethyl]-benzamide], the pIC50 is 6.04.

With `COc1ccc(Nc2nc(N3CCCC(C(=O)Nc4ccc(-c5nnc(S)n5C)cc4)C3)nc3scnc23)cc1OC` (stereo not shown) [Compound I-52, 1-(7-(3,4-Dimethoxyphenylamino)thiazolo[5,4-d]pyrimidin-5-yl)-N-(4-(5-mercapto-4-methyl-4H-1,2,4-triazol-3-yl)phenyl)piperidine-3-carboxamide], the negative logarithm of the IC50 (pIC50) was 6.36.

Consider `COc1ccc(Nc2nc(-c3cccc(C(=O)N4CCCNCC4)c3)nc3scnc23)cc1OC` [Compound I-2, [1,4]Diazepan-1-yl-{3-[7-(3,4-dimethoxy-phenylamino)-thiazolo[5,4-d]pyrimidin-5-yl]-phenyl}-methanone], for which the pIC50 was 5.95.

For the compound `COc1ccc(Nc2nc(-c3cccc(C(=O)Nc4ccc(-c5nnc(S)o5)cc4)c3)nc3scnc23)cc1OC` [Compound I-15, 3-[7-(3,4-Dimethoxy-phenylamino)-thiazolo[5,4-d]pyrimidin-5-yl]-N-[4-(5-mercapto-[1,3,4]oxadiazol-2-yl)-phenyl]-benzamide], the pIC50 is 7.35.

As for `COc1ccc(Nc2nc(N3CCCC(C(=O)Nc4ccc5c(c4)C(=O)NC5=O)C3)nc3scnc23)cc1OC` (stereo not shown) [Compound I-50, 1-(7-(3,4-Dimethoxyphenylamino)thiazolo[5,4-d]pyrimidin-5-yl)-N-(1,3-dioxoisoindolin-5-yl)piperidine-3-carboxamide], the pIC50 is 5.72.

For the compound `COc1ccc(Nc2nc(-c3cccc(C(=O)Nc4ccc(C(=O)O)c(OC)c4)c3)nc3scnc23)cc1OC` [Compound I-16, 4-(3-(7-(3,4-Dimethoxyphenylamino)thiazolo[5,4-d]pyrimidin-5-yl)benzamido)-2-methoxybenzoic acid], the pIC50 is 7.92.

Take `COc1ccc(Nc2nc(N3CCC(NC(=O)c4ccc(C(N)=O)nc4)C3)nc3scnc23)cc1OC` (stereo not shown) [Compound I-37, N5-(1-(7-(3,4-Dimethoxyphenylamino)thiazolo[5,4-d]pyrimidin-5-yl)pyrrolidin-3-yl)pyridine-2,5-dicarboxamide]: the pIC50 is 6.04.

In the case of `COc1ccc(Nc2nc(-c3ccc(C(=O)NCCc4cc[nH]c(=O)c4)cc3)nc3scnc23)cc1OC` [Compound I-23, 4-(7-(3,4-Dimethoxyphenylamino)thiazolo[5,4-d]pyrimidin-5-yl)-N-(2-(2-oxo-1,2-dihydropyridin-4-yl)ethyl)benzamide], the pIC50 is 6.03.

Consider `COc1ccc(Nc2nc(N3CCC(NC(=O)c4ccc(N)nc4)C3)nc3scnc23)cc1OC` (stereo not shown) [Compound I-13, 6-Amino-N-{1-[7-(3,4-dimethoxy-phenylamino)-thiazolo[5,4-d]pyrimidin-5-yl]-pyrrolidin-3-yl}-nicotinamide], for which the negative logarithm of the IC50 (pIC50) was 6.25.

As for `COc1ccc(Nc2nc(N3CCC(NC(=O)c4ccc5[nH]ncc5c4)C3)nc3scnc23)cc1OC` (stereo not shown) [Compound I-35, N-(1-(7-(3,4-Dimethoxyphenylamino)thiazolo[5,4-d]pyrimidin-5-yl)pyrrolidin-3-yl)-1H-indazole-5-carboxamide], the pIC50 was 6.38.

`COc1ccc(Nc2nc(N3CCC(NC(=O)c4ccc(C(=O)O)cc4)C3)nc3scnc23)nc1OC` (stereo not shown) [Compound I-55, 4-(1-(7-(5,6-Dimethoxypyridin-2-ylamino)thiazolo[5,4-d]pyrimidin-5-yl)pyrrolidin-3-ylcarbamoyl)benzoic acid]: the pIC50 was 5.21.

As for `COc1ccc(Nc2nc(-c3cccc(CNc4ccc(C(=O)O)cc4)c3)nc3scnc23)cc1OC` [Compound I-30, 4-(3-(7-(3,4-Dimethoxyphenylamino)thiazolo[5,4-d]pyrimidin-5-yl)benzylamino)benzoic acid], the pIC50 was 7.74.

As to `COc1cc(Nc2nc(-c3ccc(C(N)=O)cc3)nc3scnc23)cc(N2CCC[C@@H]2C)c1` [Compound I-60, 4-{7-[3-Methoxy-5-((S)-2-methyl-pyrrolidin-1-yl)-phenylamino]-thiazolo[5,4-d]pyrimidin-5-yl}-benzamide], the negative logarithm of the IC50 (pIC50) is 5.95.

For the compound `COC(=O)c1cccc(-c2nc(Nc3cccc(S(C)(=O)=O)c3)c3ncsc3n2)c1` [Compound I-26, Methyl 3-(7-(3-(methylsulfonyl)phenylamino)thiazolo[5,4-d]pyrimidin-5-yl)benzoate], the negative logarithm of the IC50 (pIC50) was 5.69.

On to `COc1ccc(Nc2nc(N3CCC(NC(=O)c4ccc5c(c4)NC(=O)C5)C3)nc3scnc23)cc1OC` (stereo not shown) [Compound I-8, N-(1-(7-(3,4-Dimethoxyphenylamino)thiazolo[5,4-d]pyrimidin-5-yl)pyrrolidin-3-yl)-2-oxoindoline-6-carboxamide], for which the pIC50 is 6.05.

The pIC50 is the negative decadic logarithm of the IC50, by convention in mol/L.

For the origin of these results see patent publication US8921383B2, “Thiazolopyrimidine compounds” (Hoffmann-La Roche Inc., priority 2011, dated 2014).
